The values below come from ChEMBL document CHEMBL4396962, “Discovery of novel steroidal histamine H3 receptor antagonists/inverse agonists. Part 2. Versatile steroidal carboxamide derivatives” (Bioorg Med Chem Lett, 2019).

The target of data set [1] is Histamine H3 receptor (Homo sapiens, UniProt Q9Y5N1). The data set can be described thus: Displacement of [3H]methyl- N-alpha methylhistamine dihydrochloride from human recombinant H3 receptor expressed in CHOK1 cells measured after 30 mins by liquid scintillation counter method. It is filed as cell-based. Background: Loss of bound radioactivity is the signal in a displacement assay; it reports binding, not function.

Data set [2] can be described thus: Fraction of drug metabolized in rat microsomes. Conditions: read-out: Fm. In kind it is ADME, Microsome.
The subject of data set [3] is Rattus norvegicus. The experiment in a line: In vivo antagonist activity at H3 receptor in po dosed Wistar rat assessed as inhibition of imetit induced dipsogenia preincubated for 30 mins followed by imetit administration at 3 mg/kg,sc. It is filed as functional.
Data set [4] concerns the target Voltage-gated inwardly rectifying potassium channel KCNH2 (Homo sapiens, UniProt Q12809). The experiment in a line: Inhibition of human ERG.
The target in data set [5] is Muscarinic acetylcholine receptor (Rattus norvegicus) (UniProt P08482+P08483+P08485+P08911+P10980). The experiment in a line: Displacement of [3H]quinuclidinyl benzilate from Wistar rat cortex muscarinic acetylcholine receptor at 3 uM by liquid scintillation counter method relative to control.
Data set [6] is described as follows: Fraction of drug metabolized in human microsomes. In kind it is ADME, Microsome. Conditions: read-out: Fm.
Data set [7] addresses Histamine H3 receptor (Rattus norvegicus, UniProt Q9QYN8). The experiment in a line: Displacement of [3H]methyl- N-alpha methylhistamine dihydrochloride from Sprague-Dawley rat cerebral cortex H3 receptor measured after 30 mins by scintillation counter method.
Data set [8] has as its target Muscarinic acetylcholine receptor. The experiment in a line: Displacement of [3H]quinuclidinyl benzilate from Wistar rat cortex muscarinic acetylcholine receptor by liquid scintillation counter method.
The species entered for data set [9] is Rattus norvegicus. The data set can be described thus: Selectivity index, ratio of Ki for Wistar rat cortex muscarinic acetylcholine receptor to Ki for Sprague-Dawley rat cerebral cortex H3 receptor.
Data set [10] deals with Rattus norvegicus. The data set can be described thus: In vivo antagonist activity at H3 receptor in ip dosed Wistar rat assessed as inhibition of imetit induced dipsogenia preincubated for 30 mins followed by imetit administration at 3 mg/kg,sc. It is filed as functional.
In data set [11] the test system is Rattus norvegicus. The experiment in a line: In vivo antagonist activity at Wistar rat H3 receptor assessed as inhibition of imetit-induced dipsogenia at 30 mg/kg, po for 30 mins followed by imetit administration at 3 mg/kg, sc, relative to control. In kind it is functional.
Data set [12] has as its target Histamine H3 receptor (Rattus norvegicus) (UniProt Q9QYN8). The data set can be described thus: Displacement of [3H]methyl- N-alpha methylhistamine dihydrochloride from Sprague-Dawley rat cerebral cortex H3 receptor measured after 30 mins by scintillation counter method relative to control.
Data set [13] can be described thus: Kinetic solubility of compound. In kind it is physicochemical. Conditions: read-out: Kinetic_solubility.
Data set [14] can be described thus: Partition coefficient, logD of compound at pH 7.4. It is filed as physicochemical. As to conditions: octanol/water.
The nature of data set [15]: Ratio of AUC (0 to infinity) in Wistar rat brain to plasma at 10 mg/kg, po measured after 5 hrs by HPLC-MS/MS analysis. In kind it is ADME, organism-based.
In data set [16] the test system is Rattus norvegicus. The data set can be described thus: Cognitive enhancement in scopolamine-induced amnesia Wistar rat model assessed as increase in memory retrieval at 3 mg/kg, po with scopolamine treatment for 23 hrs followed by compound administration measured after 1 hr by water labyrinth relative to control. It is filed as functional.
The nature of data set [17]: Tmax in Wistar rat brain at 10 mg/kg, po measured after 5 hrs by HPLC-MS/MS analysis. It is filed as ADME, organism-based.
Data set [18] in a line: Lipophilicity, logP of compound. It is filed as physicochemical. As to conditions: octanol/water.
A short description of data set [19]: Solubility of compound in DMSO. In kind it is physicochemical.

Converted amounts (≈) assume the structure as drawn.

Chain of Histamine H3 receptor (Rattus norvegicus, UniProt Q9QYN8) (Q9QYN8 whole entry): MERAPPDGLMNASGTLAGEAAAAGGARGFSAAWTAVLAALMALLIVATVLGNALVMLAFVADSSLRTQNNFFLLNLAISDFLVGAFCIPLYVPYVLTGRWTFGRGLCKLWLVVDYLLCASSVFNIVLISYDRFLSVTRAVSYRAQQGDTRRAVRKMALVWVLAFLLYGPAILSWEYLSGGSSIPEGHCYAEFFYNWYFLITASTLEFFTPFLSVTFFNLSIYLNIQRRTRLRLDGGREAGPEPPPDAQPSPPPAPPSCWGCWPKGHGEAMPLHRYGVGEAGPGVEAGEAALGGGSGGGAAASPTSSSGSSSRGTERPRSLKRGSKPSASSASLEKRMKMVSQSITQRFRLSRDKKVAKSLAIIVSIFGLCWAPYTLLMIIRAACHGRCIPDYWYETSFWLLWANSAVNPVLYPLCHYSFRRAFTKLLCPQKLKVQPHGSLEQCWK
Chain of Voltage-gated inwardly rectifying potassium channel KCNH2 (Q12809 whole entry): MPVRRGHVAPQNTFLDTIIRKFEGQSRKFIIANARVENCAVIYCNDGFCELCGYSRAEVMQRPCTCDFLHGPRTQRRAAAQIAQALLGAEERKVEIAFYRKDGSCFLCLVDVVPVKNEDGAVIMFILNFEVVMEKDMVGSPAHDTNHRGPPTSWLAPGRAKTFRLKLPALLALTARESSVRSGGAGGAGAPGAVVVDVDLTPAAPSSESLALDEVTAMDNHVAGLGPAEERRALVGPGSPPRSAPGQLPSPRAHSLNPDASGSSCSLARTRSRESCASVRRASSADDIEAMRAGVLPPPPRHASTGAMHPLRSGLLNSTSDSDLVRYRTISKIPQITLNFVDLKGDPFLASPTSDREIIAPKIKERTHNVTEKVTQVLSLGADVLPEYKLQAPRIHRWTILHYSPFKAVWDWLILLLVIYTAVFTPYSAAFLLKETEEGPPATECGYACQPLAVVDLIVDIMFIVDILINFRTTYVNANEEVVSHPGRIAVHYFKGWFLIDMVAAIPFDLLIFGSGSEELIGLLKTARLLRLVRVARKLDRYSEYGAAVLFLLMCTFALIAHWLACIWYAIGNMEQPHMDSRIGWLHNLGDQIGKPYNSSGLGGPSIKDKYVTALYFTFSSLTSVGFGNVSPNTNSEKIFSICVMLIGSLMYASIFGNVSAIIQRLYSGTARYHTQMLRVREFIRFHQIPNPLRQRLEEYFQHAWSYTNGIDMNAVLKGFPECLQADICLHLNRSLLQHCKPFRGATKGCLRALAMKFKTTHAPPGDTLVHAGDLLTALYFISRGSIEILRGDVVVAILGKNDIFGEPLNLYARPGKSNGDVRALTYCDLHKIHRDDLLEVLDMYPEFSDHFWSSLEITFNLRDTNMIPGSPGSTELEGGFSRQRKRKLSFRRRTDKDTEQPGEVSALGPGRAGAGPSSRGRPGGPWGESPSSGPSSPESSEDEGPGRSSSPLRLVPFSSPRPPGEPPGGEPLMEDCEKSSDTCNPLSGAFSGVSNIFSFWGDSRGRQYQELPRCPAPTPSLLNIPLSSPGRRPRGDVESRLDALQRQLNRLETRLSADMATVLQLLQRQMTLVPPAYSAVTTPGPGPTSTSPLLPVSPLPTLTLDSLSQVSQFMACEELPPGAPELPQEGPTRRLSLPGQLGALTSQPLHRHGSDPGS
Chain of Histamine H3 receptor (Homo sapiens, UniProt Q9Y5N1) (Q9Y5N1 whole entry): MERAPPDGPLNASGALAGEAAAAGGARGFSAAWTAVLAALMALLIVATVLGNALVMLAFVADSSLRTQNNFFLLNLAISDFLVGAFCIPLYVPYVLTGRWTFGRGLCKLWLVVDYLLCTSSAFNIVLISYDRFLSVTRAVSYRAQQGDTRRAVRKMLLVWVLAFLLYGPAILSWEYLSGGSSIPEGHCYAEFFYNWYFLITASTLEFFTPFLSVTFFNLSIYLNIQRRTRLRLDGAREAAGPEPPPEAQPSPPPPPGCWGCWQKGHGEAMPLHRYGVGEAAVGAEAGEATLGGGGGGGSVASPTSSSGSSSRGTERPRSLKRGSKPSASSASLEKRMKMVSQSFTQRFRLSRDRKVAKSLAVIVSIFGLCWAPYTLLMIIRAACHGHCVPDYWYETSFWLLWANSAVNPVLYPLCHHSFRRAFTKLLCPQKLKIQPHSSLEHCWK
Chain of Histamine H3 receptor (Rattus norvegicus) (Q9QYN8 whole entry): as the sequence (Q9QYN8 whole entry) above

Turning to `CCNC(=O)[C@H]1CC(=O)[C@@]2(C)CC[C@@H]3c4ccc(OCCCN5CCC[C@@H]5C)cc4CC[C@H]3[C@H]12`, on Histamine H3 receptor [1], the Ki was 21 nM.
In the case of `CCNC(=O)[C@H]1C[C@H](OC)[C@@]2(C)CC[C@@H]3c4ccc(OCCCN5CCC[C@H]5C)cc4CC[C@H]3[C@H]12`, the metabolised in [2] and in [6] was 96% throughout. Besides, the ED50 in the data set on Rattus norvegicus [3] was 2.5 mg/kg. In addition, the IC50 in data set [4] was found to be 11400 nM. Further, the Activity in data set [5] was determined as 7%. Besides, the Ki was 9 nM at Histamine H3 receptor [1] and 28 nM at Histamine H3 receptor [7].
As to `C[C@@H]1CCCN1CCCOc1ccc2c(c1)CC[C@H]1[C@@H]3[C@@H](C(=O)NCC4CC4)CC[C@@]3(C)CC[C@H]21`, the metabolised in data set [2] was 76%; in data set [6], 90%. Besides, in [4], the IC50 turned out to be 4100 nM. For the same compound, the Activity in [5] came to 27%. For the same compound, the Ki at Histamine H3 receptor [1] came out at 9 nM; on Histamine H3 receptor [7] it was 13 nM.
Take `C[C@H]1CCCN1CCCOc1ccc2c(c1)CC[C@H]1[C@@H]3[C@H](C(=O)N4CCCC4)CC(=O)[C@@]3(C)CC[C@H]21`: the metabolised was 85% in data set [2] and 75% in data set [6]. Further, the ED50 with Rattus norvegicus [3] came to 0.6 mg/kg. This compound also gave an IC50 in [4] of 80000 nM. The compound also returned an Activity in data set [5] of 16%. The Ki is 30 nM on Histamine H3 receptor [1] and 9 nM on Histamine H3 receptor [7].
In the case of `CCNC(=O)[C@H]1CC(=O)[C@@]2(C)CC[C@@H]3c4ccc(OCCCN5CCC(F)(F)CC5)cc4CC[C@H]3[C@H]12`, the Ki on Histamine H3 receptor [1] was found to be 1370 nM.
`C[C@]12CC[C@@H]3c4ccc(OCCCN5CCCC5=O)cc4CC[C@H]3[C@@H]1CC[C@@H]2N1CCCC1`: the values for the Ki (in [8]; on Histamine H3 receptor [1]; at Histamine H3 receptor [7]) were 700 nM, 9 nM and 22 nM, respectively. Further, the metabolised in data set [2] stood at 85%; in data set [6], 77%.
`CCNC(=O)[C@@H]1CC(=O)[C@@]2(C)CC[C@@H]3c4ccc(OCCCCN5CCC[C@@H]5C)cc4CC[C@H]3[C@H]12`: the Activity in [5] was 17%. Also, on Histamine H3 receptor [1], the inhibition constant Ki is 234 nM.
With `C[C@@H]1CCCN1CCCOc1ccc2c(c1)CC[C@@H]1[C@@H]2CC[C@]2(C)[C@@H](C(=O)N3CCCC3)CC[C@@H]12`, the Ki is 454 nM in data set [8], 2 nM on Histamine H3 receptor [1] and 18 nM at Histamine H3 receptor [7]. Further, the Ratio Ki in the data set filed under Rattus norvegicus [9] worked out at 25.
For the compound “N-ethyl-2-((8R,9S,13S,14S,15R,17S)-17-methoxy-13-methyl-3-(3-((R)-2-methylpyrrolidin-1-yl)propoxy)-7,8,9,11,12,13,14,15,16,17-decahydro-6H-cyclopenta[a]phenanthren-15-yl)acetamide”, the Activity in data set [5] came out at 6%.
The compound `CCNC(=O)[C@@H]1CC(=O)[C@@]2(C)CC[C@@H]3c4ccc(OCCN5CCC[C@@H]5C)cc4CC[C@H]3[C@H]12` registered an Activity in data set [5] of 4%. Further, the Ki on Histamine H3 receptor [1] came out at 260 nM.
Consider `CCNC(=O)[C@H]1CC(=O)[C@@]2(C)CC[C@@H]3c4ccc(OCCCN5CC[C@@H](F)C5)cc4CC[C@H]3[C@H]12`, for which, at Histamine H3 receptor [1], the Ki amounted to 230 nM.
As to `CCNC(=O)[C@@H]1CC(=O)[C@@]2(C)CC[C@@H]3c4ccc(OCCCN5CCC[C@H]5C)cc4CC[C@H]3[C@H]12`, on Histamine H3 receptor [1], the Ki came to 43 nM.
As to `CCNC(=O)[C@H]1CC[C@@]2(C)CC[C@@H]3c4ccc(OCCCN5CCC[C@H]5C)cc4CC[C@H]3[C@H]12`, the results for the metabolised in data set [2] and in data set [6] were 66% and 62%, respectively. Further, the ED50 in the data set on Rattus norvegicus [3] was in the range of 2.26 to 2.3 mg/kg. The IC50 in data set [4] worked out at 4100 nM. This compound showed an Activity in data set [5] of 24%. For the same compound, the Ki on Histamine H3 receptor [1] stood at 9 nM; at Histamine H3 receptor [7], 24 nM.
With `CCNC(=O)[C@H]1CC(=O)[C@@]2(C)CC[C@@H]3c4ccc(OCCCN5CCC(F)CC5)cc4CC[C@H]3[C@H]12`, at Histamine H3 receptor [1], the Ki is 530 nM.
The compound `C[C@]12CC[C@@H]3c4ccc(OCCCN5CCCC5)cc4CC[C@H]3[C@@H]1CC[C@@H]2N1CCCC1` had a Ki in data set [8] of 110 nM. For the same compound, the IC50 in data set [4] turned out to be 7500 nM. The ED50 with Rattus norvegicus [10] worked out at 12 mg/kg. Further, the “inhibition (INH)” value with Rattus norvegicus [11] amounted to 19%.
As for `C[C@@H]1CCCN1CCCOc1ccc2c(c1)CC[C@@H]1[C@@H]2CC[C@]2(C)[C@@H](N3CCCC3=O)CC[C@@H]12`, the Activity in [5] came to 51%. Further, on Histamine H3 receptor [7], the Ki turned out to be 135 nM.
With `C[C@@H]1CCCN1CCCOc1ccc2c(c1)CC[C@H]1[C@@H]3[C@@H](C(=O)NCC4CCC4)CC[C@@]3(C)CC[C@H]21`, the values for the Ki (in [8]; at Histamine H3 receptor [1]; at Histamine H3 receptor [7]) were 1708 nM, 5 nM and 19 nM, respectively. Besides, the metabolised in [2] came out at 50%; in [6] it was 48%.
For `CC(=O)N[C@@H]1CC(=O)[C@@]2(C)CC[C@@H]3c4ccc(OCCCN5CCC[C@H]5C)cc4CC[C@H]3[C@H]12`, the metabolised in data set [2] is 46%; in [6], 85%. This compound had an Activity in data set [5] of 20%. The results for the Ki at Histamine H3 receptor [1] and on Histamine H3 receptor [7] were 10 nM and 39 nM, respectively.
Compound `CCN(CC)C(=O)[C@@H]1CC(=O)[C@@]2(C)CC[C@@H]3c4ccc(OCCCN5CCC[C@@H]5C)cc4CC[C@H]3[C@H]12` yielded an inhibition in data set [12] of 44%. Besides, the Ki at Histamine H3 receptor [1] was found to be 34 nM.
As for `CCNC(=O)[C@H]1CC(=O)[C@@]2(C)CC[C@@H]3c4ccc(OCCCN5CCC[C@H]5C)cc4CC[C@H]3[C@H]12`, the Ki in [8] came out at 4700 nM; at Histamine H3 receptor [1], 3 nM; on Histamine H3 receptor [7] it was 9 nM. The metabolised in data set [2] and in [6] was 99% each time. Further, in data set [13], the solubility kinetic was 250 µM (≈ 117 µg/mL). The ED50 in the data set with Rattus norvegicus [3] was found to be 0.47 mg/kg. The compound further displayed an IC50 in data set [4] of 17500 nM. Also, in [14], the log distribution coefficient (logD) came to 1.7. Also, the Kp at 5 h in data set [15] was 0.24. In the data set on Rattus norvegicus [16], the Activity turned out to be 52.3%. In addition, the Tmax in data set [17] was 1 h. In data set [18], this compound gave a logP of 4.2. In data set [19], this compound returned a solubility of over 50000 µM.

The Ki is the dissociation constant of the complex between target and ligand, obtained from inhibition or displacement. As usually defined, the ED50 is the dose at which the effect has come halfway, by size or by number of responders. Broadly, the IC50 is the midpoint of a concentration-inhibition curve. A high value points to weaker potency. The term inhibition denotes the percentage by which the read-out fell short of the control. Lower therefore signals a response near the control. As a reminder, the logD is lipophilicity at a set pH, counting ionised and neutral species. The low end stands for a more hydrophilic compound, the high end for a more lipophilic compound. One may read the Kp as the ratio of the level in a tissue or fluid to that in plasma or blood. As usually defined, the Tmax is the time at which the peak concentration occurs. As a reminder, the logP is the decadic logarithm of the partition coefficient of the neutral form, usually between octanol and water. A low value points to lower lipophilicity. The term solubility denotes the dissolved amount per volume that the medium holds.
